System: E. coli
Assay: Resonant mass measurement of growth of E. coli cultures with antibiotics
Format: cell-based

Compound: CC1(C)S[C@@H]2[C@H](NC(=O)[C@H](N)c3ccccc3)C(=O)N2[C@H]1C(=O)O [ampicillin]
- time development of mass and number of microbes in culture (FIG. 4) (E. coli in nutrient broth containing 64 μg/ml, cultures measured cyclically via selection valve): grow robustly
- microbe number concentration growth curve (number of microbes per ml, FIG. 5(a)) (E. coli, 64 μg/ml, concentration calculated in each time interval): begins at about one hour
- diagnostic susceptibility of the E. coli strain (at the measured concentration (64 μg/ml)): resistant
